Assay results taken from US10934276B2, “Positive allosteric modulators of the muscarinic acetylcholine receptor M4” (Vanderbilt University, priority 2016, dated 2021).

Target: T1, Human M4 (Homo sapiens, UniProt P08173)
T1 construct: expressed in transfected cells; host or cells: CHO-K1 (ATCC), stably expressing hM4 and Gqi5
T1 sequence (P08173 1-479): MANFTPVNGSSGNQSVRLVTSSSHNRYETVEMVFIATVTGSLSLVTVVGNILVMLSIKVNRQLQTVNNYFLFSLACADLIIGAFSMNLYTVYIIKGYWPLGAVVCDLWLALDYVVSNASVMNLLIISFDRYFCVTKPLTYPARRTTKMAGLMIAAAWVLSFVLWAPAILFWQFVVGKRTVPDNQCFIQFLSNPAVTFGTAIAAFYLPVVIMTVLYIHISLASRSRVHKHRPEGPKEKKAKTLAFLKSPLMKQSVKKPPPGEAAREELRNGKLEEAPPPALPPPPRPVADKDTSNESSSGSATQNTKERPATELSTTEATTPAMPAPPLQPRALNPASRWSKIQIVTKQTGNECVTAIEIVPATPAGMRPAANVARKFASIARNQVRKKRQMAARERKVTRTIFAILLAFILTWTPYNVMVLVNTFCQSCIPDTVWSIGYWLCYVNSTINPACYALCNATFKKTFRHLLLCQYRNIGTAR
Experiment: mAChR M4 cell-based functional assay (calcium flux, potentiation of EC20 acetylcholine response in CHO-K1 hM4-Gqi5 cells)
Settings: for Emax at 30 µM: CHO-K1, % ACh maximum at 30 μM, human M4; for EC50: positive allosteric modulator mode, EC20 acetylcholine, CHO-K1 cells with human M4 and Gqi5
Description: Human M4 cDNA, along with the chimeric G protein Gqi5, were transfected into Chinese hamster ovary (CHO—K1) cells purchased from the American Type Culture Collection using Lipofectamine2000. hM4-Gqi5 cells were grown in Ham's F-12 medium containing 10% heat-inactivated fetal bovine serum (FBS), 20 mM HEPES, 50 μg/mL G418 sulfate, and 500 μg/mL Hygromycin B. rM4-Gqi5 cells were grown in DMEM containing 10% heat-inactivated FBS, 20 mM HEPES, 400 μg/mL G418 sulfate, and 500 μg/mL Hygromycin B.
For high throughput measurement of agonist-evoked increases in intracellular calcium, CHO—K1 cells stably expressing muscarinic receptors were plated in growth medium lacking G418 and hygromycin at 15,000 cells/20 μL/well in Greiner 384-well black-walled, tissue culture (TC)-treated, clear-bottom plates (VWR). Cells were incubated overnight at 37° C. and 5% CO2. The next day, cells were washed using an ELX 405 (BioTek) with assay buffer; the final volume was then aspirated to 20 μL. Next, 20 μL of a 2.3 μM stock of Fluo-4/acetoxymethyl ester (Invitrogen, Carlsbad, Calif.), prepared as a 2.3 mM stock in DMSO and mixed in a 1:1 ratio with 10% (w/v) Pluronic F-127 and diluted in assay buffer, was added to the wells and the cell plates were incubated for 50 min at 37° C. and 5% CO2. Dye was removed by washing with the ELX 405 and the final volume was aspirated to 20 μL. Compound master plates were formatted in an 11 point concentration-response curve (CRC) format (1:3 dilutions) in 100% DMSO with a starting concentration of 10 mM using a BRAVO liquid handler (Agilent). Test compound CRCs were then transferred to daughter plates (240 nL) using the Echo acoustic plate reformatter (Labcyte, Sunnyvale, Calif.) and then diluted into assay buffer (40 μL) to a 2× stock using a Thermo Fisher Combi (Thermo Fisher Scientific, Waltham, Mass.).
Calcium flux was measured using the Functional Drug Screening System (FDSS) 6000 or 7000 (Hamamatsu Corporation, Tokyo, Japan) as an increase in the fluorescent static ratio. Compounds were applied to cells (20 μL, 2×) using the automated system of the FDSS at 2-4 seconds into the protocol and the data were collected at 1 Hz. At 144 seconds, 10 μL of an EC20 concentration of the muscarinic receptor agonist acetylcholine was added (5×), followed by the addition of 12 μL of an EC80 concentration of acetylcholine at the 230 second time point (5×). Agonist activity was analyzed as a concentration-dependent increase in calcium mobilization upon compound addition. Positive allosteric modulator activity was analyzed as a concentration-dependent increase in the EC20 acetylcholine response. With the acetylcholine EC20 set as baseline, the test compound EC50 is determined as the concentration that produces an increase above baseline of 50% of the maximum increase in acetylcholine response elicted by the test compound. Antagonist activity was analyzed as a concentration-dependent decrease in the EC80 acetylcholine response. Concentration-response curves were generated using a four-parameter logistical equation in XLFit curve fitting software (IDBS, Bridgewater, N.J.) for Excel (Microsoft, Redmond, Wash.) or Prism (GraphPad Software, Inc., San Diego, Calif.).
Compounds were synthesized as described above. Activity (EC50 and Emax) was determined in the mAChR M4 cell-based functional assay as described above and the data are shown in Table 3. The compound numbers correspond to the compound numbers used in Examples 2-4 and Tables 1 and 2.

Row | Compound | Emax at 30 µM [%] | EC50 [nM]
1 | COc1ccc(CNC(=O)c2ccc3nc(C)cc(C)c3c2)cc1F [Compound 1, N-[(3-fluoro-4-methoxy-phenyl)methyl]-2,4-dimethyl-quinoline-6-carboxamide] | 53.1 | > 10000
2 | COc1cc(N2CC(NC(=O)c3ccc4nc(C)cc(C)c4c3)C2)c(Cl)cn1 [Compound 2, N-[1-(5-chloro-2-methoxy-4-pyridyl)azetidin-3-yl]-2,4-dimethyl-quinoline-6-carboxamide] | 39.3 | 540
3 | Cc1cc(C)c2cc(C(=O)NC3CN(c4ncc(C(F)(F)F)cn4)C3)ccc2n1 [Compound 3, 2,4-dimethyl-N-[1-[5-(trifluoromethyl)pyrimidin-2-yl]azetidin-3-yl]quinoline-6-carboxamide] | 44.2 | 6900
4 | Cc1cc(C)c2cc(C(=O)NC3CN(c4ncc(OC(C)C)cn4)C3)ccc2n1 [Compound 4, N-[1-(5-isopropoxypyrimidin-2-yl)azetidin-3-yl]-2,4-dimethyl-quinoline-6-carboxamide] | 49.3 | 5300
5 | Cc1cc(C)c2cc(C(=O)NC3CN(c4cc(Cl)ncc4Cl)C3)ccc2n1 [Compound 5, N-[1-(2,5-dichloro-4-pyridyl)azetidin-3-yl]-2,4-dimethyl-quinoline-6-carboxamide] | 52.5 | 190
6 | Cc1cc(C)c2cc(C(=O)NCc3ccncc3)ccc2n1 [Compound 6, 2,4-dimethyl-N-(4-pyridylmethyl)quinoline-6-carboxamide] | 26.4 | > 10000
7 | Cc1cc(C)c2cc(C(=O)NCc3cccnc3)ccc2n1 [Compound 7, 2,4-dimethyl-N-(3-pyridylmethyl)quinoline-6-carboxamide] | 32 | > 10000
8 | Cc1cc(N2CC(NC(=O)c3ccc4nc(C)cc(C)c4c3)C2)cc(OC(F)F)n1 [Compound 8, N-[1-[2-(difluoromethoxy)-6-methyl-4-pyridyl]azetidin-3-yl]-2,4-dimethyl-quinoline-6-carboxamide] | 41.1 | 1700
9 | Cc1cc(C)c2cc(C(=O)NC3CN(c4cc(Cl)nc(Cl)c4)C3)ccc2n1 [Compound 9, N-[1-(2,6-dichloro-4-pyridyl)azetidin-3-yl]-2,4-dimethyl-quinoline-6-carboxamide] | 26.1 | 370
10 | Cc1cc(C)c2cc(C(=O)NC3CN(c4ccnc(OC(F)F)c4)C3)ccc2n1 [Compound 10, N-[1-[2-(difluoromethoxy)-4-pyridyl]azetidin-3-yl]-2,4-dimethyl-quinoline-6-carboxamide] | 55.5 | 1400
11 | Cc1cc(C)c2cc(C(=O)NC3CN(c4nccc(Br)c4Cl)C3)ccc2n1 [Compound 11, N-[1-(4-bromo-3-chloro-2-pyridyl)azetidin-3-yl]-2,4-dimethyl-quinoline-6-carboxamide] | 27.5 | 2200
12 | Cc1cc(C)c2cc(C(=O)NC3CN(c4ccnc(F)c4F)C3)ccc2n1 [Compound 12, N-[1-(2,3-difluoro-4-pyridyl)azetidin-3-yl]-2,4-dimethyl-quinoline-6-carboxamide] | 65.4 | 170
13 | Cc1cc(C)c2cc(C(=O)NC3CN(c4nccc(Br)c4F)C3)ccc2n1 [Compound 13, N-[1-(4-bromo-3-fluoro-2-pyridyl)azetidin-3-yl]-2,4-dimethyl-quinoline-6-carboxamide] | 59.5 | 1600
14 | COc1cc(N2CC(NC(=O)c3ccc4nnc(C)c(C)c4c3)C2)c(Cl)cn1 [Compound 14, N-[1-(5-chloro-2-methoxy-4-pyridyl)azetidin-3-yl]-3,4-dimethyl-cinnoline-6-carboxamide] | 74.1 | 370
15 | COc1ccc(CNC(=O)c2ccc3nnc(C)c(C)c3c2)cc1F [Compound 15, N-[(3-fluoro-4-methoxy-phenyl)methyl]-3,4-dimethyl-cinnoline-6-carboxamide] | 72.3 | 1890
16 | Cc1nnc2ccc(C(=O)NCc3ccc(C(C)(C)O)cc3)cc2c1C [Compound 16, N-[[4-(1-hydroxy-1-methyl-ethyl)phenyl]methyl]-3,4-dimethyl-cinnoline-6-carboxamide] | 71.2 | > 10000
17 | Cc1nnc2ccc(C(=O)NC3CN(c4ncc(C(F)(F)F)cn4)C3)cc2c1C [Compound 17, 3,4-dimethyl-N-[1-[5-(trifluoromethyl)pyrimidin-2-yl]azetidin-3-yl]cinnoline-6-carboxamide] | 76.7 | > 10000
18 | Cc1nnc2ccc(C(=O)NC3CN(c4ccc(F)c(F)c4)C3)cc2c1C [Compound 18, N-[1-(3,4-difluorophenyl)azetidin-3-yl]-3,4-dimethyl-cinnoline-6-carboxamide] | 81.7 | 740
19 | Cc1nnc2ccc(C(=O)NC3CN(c4ncc(F)cn4)C3)cc2c1C [Compound 19, N-[1-(5-fluoropyrimidin-2-yl)azetidin-3-yl]-3,4-dimethyl-cinnoline-6-carboxamide] | 75.4 | > 10000
20 | Cc1nnc2ccc(C(=O)NC3CN(c4ncc(OC(C)C)cn4)C3)cc2c1C [Compound 20, N-[1-(5-isopropoxypyrimidin-2-yl)azetidin-3-yl]-3,4-dimethyl-cinnoline-6-carboxamide] | 87.8 | 3200
21 | Cc1nnc2ccc(C(=O)NC3CN(c4cnc(C(F)(F)F)cn4)C3)cc2c1C [Compound 21, 3,4-dimethyl-N-[1-[5-(trifluoromethyl)pyrazin-2-yl]azetidin-3-yl]cinnoline-6-carboxamide] | 77.8 | > 10000
22 | Cc1nnc2ccc(C(=O)NC3CN(c4cnc(C5CC5)cn4)C3)cc2c1C [Compound 22, N-[1-(5-cyclopropylpyrazin-2-yl)azetidin-3-yl]-3,4-dimethyl-cinnoline-6-carboxamide] | 79.9 | 2510
23 | Cc1nnc2ccc(C(=O)NC3CN(c4ccc(Cl)cn4)C3)cc2c1C [Compound 23, N-[1-(5-chloro-2-pyridyl)azetidin-3-yl]-3,4-dimethyl-cinnoline-6-carboxamide] | 73.4 | 1270
24 | Cc1nnc2ccc(C(=O)NC3CN(c4ccc(F)cn4)C3)cc2c1C [Compound 24, N-[1-(5-fluoro-2-pyridyl)azetidin-3-yl]-3,4-dimethyl-cinnoline-6-carboxamide] | 79.2 | > 10000
25 | Cc1nnc2ccc(C(=O)NC3CN(c4ccc(C#N)cn4)C3)cc2c1C [Compound 25, N-[1-(5-cyano-2-pyridyl)azetidin-3-yl]-3,4-dimethyl-cinnoline-6-carboxamide] | 80.6 | 1030
26 | Cc1nnc2ccc(C(=O)NC3CN(c4ncc(F)cc4Cl)C3)cc2c1C [Compound 26, N-[1-(3-chloro-5-fluoro-2-pyridyl)azetidin-3-yl]-3,4-dimethyl-cinnoline-6-carboxamide] | 79.7 | 460
